Data taken from US20070294785A1, “METHODS FOR […] DIVERSITY BY PERMUTATIONAL MUTAGENESIS” (Athenix Corporation, priority 2006, published 2007).

The substances below were run on BL21*DE3 competent E. coli cells (assay: Screening for glyphosate resistance on plates). Details: M63+ agar plates, 50 mM glyphosate, 0.05 mM IPTG, 50 ug/ml kanamycin, 36 hours at 37° C.
Assay type: cell-based
Protocol: Library ligations were transformed into BL21*DE3 competent E. coli cells (Invitrogen). The transformations were performed according to the manufacturer's instructions with the following modifications. After incubation for 1 hour at 37° C. in SOC medium, the cells were sedimented by centrifugation (5 minutes, 1000×g, 4° C.). The cells were washed with 1 ml M63+, centrifuged again, and the supernatant decanted. The cells were washed a second time with 1 ml M63+ and resuspended in 200 ul M63+.
For selection of mutant GRG1 enzymes conferring glyphosate resistance to E. coli, the cells were plated onto M63+ agar medium plates containing 50 mM glyphosate, 0.05 mM IPTG (isopropyl-beta-D-thiogalactopyranoside), and 50 ug/ml kanamycin. M63+ medium contains 100 mM KH2PO4, 15 mM (NH4)2SO4, 50 μM CaCl2, 1 μM FeSO4, 50 μM MgCl2, 55 mM glucose, 25 mg/liter L-proline, 10 mg/liter thiamine HCl, sufficient NaOH to adjust the pH to 7.0, and 15 g/liter agar. The plates were incubated for 36 hours at 37° C.

Row | Substance | glyphosate resistance (growth on glyphosate plates)
1 | L2-3 (PFIDCDESGLSIRMFTPIVALSK; Clone L2-3) | glyphosate resistant
2 | L2-4 (PFIKCRESGLSMRMFAPMVALSK; Clone L2-4) | glyphosate resistant
3 | L2-6 (PFIDCGESGLSFRMFVPIVALSK; Clone L2-6) | glyphosate resistant
4 | L2-7 (PFIECGESGLSIRLFTPLVALSK; Clone L2-7) | glyphosate resistant
5 | L2-8 (PFIDCSESGLSFRMFAPLVALSK; Clone L2-8) | glyphosate resistant
6 | L2-9 (PFINCGESGLSFRMFIPMVALSK; Clone L2-9) | glyphosate resistant
7 | L2-A (PFINCDESGLSFRMFTPIVALSK; Clone L2-A) | glyphosate resistant
